This experiment concerns B6C3F1 mice, colon carcinoma 38 s.c., T/C. The experiment is described as follows: NCI In Vivo Anticancer Drug Screen. Data for tumor model Colon Carcinoma 38 (subcutaneous) in B6C3F1 mice. The settings on record: endpoint: median tumor weight (est.), schedule: Q07DX002 (ip), higher = larger tumour. As for the experimental part:
The antitumor activity of compounds was measured in mice bearing transplantable tumors. Survival or tumor size were measured and the results are expressed as the measurement made in the treated group (T) divided by the measurement made in the vehicle treated control group (C). The tumor model used in this assay is Colon Carcinoma 38 (subcutaneous) in B6C3F1 mice

[1] abbreviates: dose: 100.0 mg/kg/injection, vehicle: Klucel (hydroxypropylcellulose) (HPC).
The mark [2] stands for this setting: dose: 50.0 mg/kg/injection, vehicle: saline.
Setting [3] is: dose: 100.0 mg/kg/injection, vehicle: saline.

Several values for one entry are separate records, joined by “and”; a condition that tells them apart may be missing. Equal values may be shown once. Results filed as inconclusive are left out.

Turning to `CCN(CC)c1ccc2[nH]c3c(C(N)=O)cc(=O)c(=O)c=3oc2c1`, the T/C is, setting by setting: (dose: 100.0 mg/kg/injection, vehicle: saline with Tween-80) 93 % of control; (dose: 200.0 mg/kg/injection, vehicle: saline with Tween-80) 99 % of control; (dose: 400.0 mg/kg/injection, vehicle: saline with Tween-80) 93 % of control.

As for `O=c1c(O)c(-c2cc(O)c(O)c(O)c2)oc2cc(O)cc(O)c12`, where the note is “dose: 600.0 mg/kg/injection, vehicle: saline with Tween-80”, the T/C was 95 % of control.

Consider `NC(CCl)=NCC12CC3CC(CC(C3)C1)C2`, for which the T/C is 110 % of control (dose: 12.5 mg/kg/injection, vehicle: Klucel (hydroxypropylcellulose) (HPC)); 94 % of control and 108 % of control under setting [1].

For the molecule `Cc1c(N)nc([C@H](CC(N)=O)NC[C@H](N)C(N)=O)nc1C(=O)N[C@H](C(=O)N[C@H](C)[C@@H](O)CC(=O)N[C@H](C(=O)NC(O[C@@H]1O[C@@H](C)[C@@H](N)[C@@H](O)[C@H]1O)C(O)c1nc(-c2nc(C(=O)NCCCCN)cs2)cs1)[C@@H](C)O)[C@@H](O[C@@H]1O[C@@H](CO)[C@@H](O)[C@H](O)[C@@H]1O[C@H]1O[C@H](CO)[C@@H](O)[C@H](OC(N)=O)[C@@H]1O)c1c[nH]cn1` (some centres not stated), the T/C by setting is: (dose: 4.0 mg/kg/injection, vehicle: saline) 54 % of control; (dose: 8.0 mg/kg/injection, vehicle: saline) 35 % of control; (dose: 16.0 mg/kg/injection, vehicle: saline) 13 % of control; (dose: 32.0 mg/kg/injection, vehicle: saline) 25 % of control; (dose: 64.0 mg/kg/injection, vehicle: saline) 9 % of control.

As to `O=C(O)C(O)C(O)C1[O][Sb][O]C1C(=O)O` (configuration not stated), the T/C reads like this: (dose: 12.5 mg/kg/injection, vehicle: saline) 76 % of control; (dose: 25.0 mg/kg/injection, vehicle: saline) 84 % of control; under setting [2], 123 % of control; under setting [3], 107 % of control.

Take `CN(C)c1ccc2c(SCC(=O)OCC(=O)[C@@]3(O)CC[C@H]4[C@@H]5CCC6=CC(=O)C=C[C@]6(C)[C@H]5C(=O)C[C@@]43C)c3ccc(N(C)C)cc3nc2c1`: the T/C is 105 % of control (dose: 50.0 mg/kg/injection, vehicle: Klucel (hydroxypropylcellulose) (HPC)); 78 % of control under setting [1]; 81 % of control (dose: 200.0 mg/kg/injection, vehicle: Klucel (hydroxypropylcellulose) (HPC)); 82 % of control (dose: 400.0 mg/kg/injection, vehicle: Klucel (hydroxypropylcellulose) (HPC)); 16 % of control (dose: 800.0 mg/kg/injection, vehicle: Klucel (hydroxypropylcellulose) (HPC)).

Regarding `Cc1ccc2nc(-c3ccc4nc(-c5ccc(N=Nc6ccc(-c7nc8ccc(-c9nc%10ccc(C)c(S(=O)(=O)O)c%10s9)cc8s7)cc6)cc5)sc4c3)sc2c1S(=O)(=O)O`, the T/C under setting [2] was 72 % of control; the T/C under setting [3] is 101 % of control; the T/C (dose: 200.0 mg/kg/injection, vehicle: saline) is 84 % of control; the T/C (dose: 400.0 mg/kg/injection, vehicle: saline) is 82 % of control.

Take `OCC1OC(n2cnc3c(=S)nc[nH]c32)C(O)C1O` (configuration not stated): the T/C was 74 % of control (dose: 250.0 mg/kg/injection, vehicle: suspension in saline); 31 % of control (dose: 500.0 mg/kg/injection, vehicle: suspension in saline); 41 % of control (dose: 1000.0 mg/kg/injection, vehicle: suspension in saline).

Source of the values: PubChem BioAssay AID214 (DTP/NCI, 2004).
